Reference: paper PMC5788414 (Journal of Medicinal Chemistry, 2017)

System: RS4;11 acute leukemia cell line
Assay: Cell growth inhibition
Type: cell-based, human
Conditions: for times less potent than 15 in cell growth inhibition: comparator 15; for times more potent than 9 in cell growth inhibition: comparator 9

For “4-((3-Cyclopropyl-1-ethyl-1H-pyrazol-5-yl)amino)-7-(3,5-dimethylisoxazol-4-yl)-N-(2-((2-(2,6-dioxopiperidin-3-yl)-1,3-dioxoisoindolin-4-yl)amino)ethyl)-6-methoxy-9H-pyrimido[4,5-b]indole-2-carboxamide [Compound 17]”, the “times less potent than 15 in cell growth inhibition” value was 10 times.
For “4-((3-Cyclopropyl-1-ethyl-1H-pyrazol-5-yl)amino)-7-(3,5-dimethylisoxazol-4-yl)-N-(3-((2-(2,6-dioxopiperidin-3-yl)-1,3-dioxoisoindolin-4-yl)amino)propyl)-6-methoxy-9H-pyrimido[4,5-b]indole-2-carboxamide [Compound 16]”, the “times less potent than 15 in cell growth inhibition” value was 5 times.
In the case of `CCn1nc(C2CC2)cc1Nc1nc(C(=O)NCCCCNC(=O)CNc2cccc3c2C(=O)N(C2CCC(=O)NC2=O)C3=O)nc2[nH]c3cc(-c4c(C)noc4C)c(OC)cc3c12` (centres unmarked) [Compound 10, 4-((3-Cyclopropyl-1-ethyl-1H-pyrazol-5-yl)amino)-7-(3,5-dimethylisoxazol-4-yl)-N-(4-(2-((2-(2,6-dioxopiperidin-3-yl)-1,3-dioxoisoindolin-4-yl)amino)acetamido)butyl)-6-methoxy-9H-pyrimido[4,5-b]indole-2-carboxamide], the “times more potent than 9 in cell growth inhibition” value is reported as 2 times.
With `CCn1nc(C2CC2)cc1Nc1nc(C(=O)NCCCCCCCOc2cccc3c2C(=O)N(C2CCC(=O)NC2=O)C3=O)nc2[nH]c3cc(-c4c(C)noc4C)c(OC)cc3c12` (centres unmarked) [Compound 11, 4-((3-Cyclopropyl-1-ethyl-1H-pyrazol-5-yl)amino)-7-(3,5-dimethylisoxazol-4-yl)-N-(7-((2-(2,6-dioxopiperidin-3-yl)-1,3-dioxoisoindolin-4-yl)oxy)heptyl)-6-methoxy-9H-pyrimido[4,5-b]indole-2-carboxamide] the “times more potent than 9 in cell growth inhibition” value was 10 times.
`CCn1nc(C2CC2)cc1Nc1nc(C(=O)NCCCCCCCNc2cccc3c2C(=O)N(C2CCC(=O)NC2=O)C3=O)nc2[nH]c3cc(-c4c(C)noc4C)c(OC)cc3c12` (centres unmarked) [Compound 12, 4-((3-Cyclopropyl-1-ethyl-1H-pyrazol-5-yl)amino)-7-(3,5-dimethylisoxazol-4-yl)-N-(7-((2-(2,6-dioxopiperidin-3-yl)-1,3-dioxoisoindolin-4-yl)amino)heptyl)-6-methoxy-9H-pyrimido[4,5-b]indole-2-carboxamide] was tested, and the “times more potent than 10 in cell growth inhibition” value (comparator 10) was 10 times.
With `CCn1nc(C2CC2)cc1Nc1nc(C(=O)NCCCCCCNc2cccc3c2C(=O)N(C2CCC(=O)NC2=O)C3=O)nc2[nH]c3cc(-c4c(C)noc4C)c(OC)cc3c12` (centres unmarked) [Compound 13, 4-((3-Cyclopropyl-1-ethyl-1H-pyrazol-5-yl)amino)-7-(3,5-dimethylisoxazol-4-yl)-N-(6-((2-(2,6-dioxopiperidin-3-yl)-1,3-dioxoisoindolin-4-yl)amino)hexyl)-6-methoxy-9H-pyrimido[4,5-b]indole-2-carboxamide] the “times less potent than 12 in cell growth inhibition” value (comparator 12) was 3 times.
In the case of `CCn1nc(C2CC2)cc1Nc1nc(C(=O)NCCCCNc2cccc3c2C(=O)N(C2CCC(=O)NC2=O)C3=O)nc2[nH]c3cc(-c4c(C)noc4C)c(OC)cc3c12` (centres unmarked) [Compound 15, 4-((3-Cyclopropyl-1-ethyl-1H-pyrazol-5-yl)amino)-7-(3,5-dimethylisoxazol-4-yl)-N-(4-((2-(2,6-dioxopiperidin-3-yl)-1,3-dioxoisoindolin-4-yl)amino)butyl)-6-methoxy-9H-pyrimido[4,5-b]indole-2-carboxamide], the “times less potent than 14 in cell growth inhibition” value (comparator 14) is reported as about 3 times.
With `CCn1nc(C2CC2)cc1Nc1nc(C(=O)NCCOCCCc2cccc3c2C(=O)N(C2CCC(=O)NC2=O)C3=O)nc2[nH]c3cc(-c4c(C)noc4C)c(OC)cc3c12` (centres unmarked) [Compound 19, 4-((3-Cyclopropyl-1-ethyl-1H-pyrazol-5-yl)amino)-7-(3,5-dimethylisoxazol-4-yl)-N-(2-(3-(2-(2,6-dioxopiperidin-3-yl)-1,3-dioxoisoindolin-4-yl)propoxy)ethyl)-6-methoxy-9H-pyrimido[4,5-b]indole-2-carboxamide] the “times less potent than 18 in cell growth inhibition” value (comparator 18) was 2 times.
